# Measured values taken from patent US9493487B2, “3-(1H-imidazo[4,5-C]pyridin-2-YL)-1H-pyrazolo[3,4-B]pyridine and therapeutic uses thereof” (Samumed, LLC, priority 2014, dated 2016).
# Columns and labels:
# [1] = system: Wnt activity (Sp5-Luc reporter, SW480 colon carcinoma cells); assay: Sp5-Luc Wnt reporter gene assay in SW480 colon carcinoma cells; format: cell-based; conditions: Homo sapiens; SW480 cells stably expressing Sp5-Luc reporter; 42 h incubation; BrightGlo luminescence normalized to DMSO
# Method in brief: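 IC50 values come from variable-slope four-parameter fits of luciferase signal normalized to DMSO wells. Stable Sp5-Luc reporter SW480 colon carcinoma cells were exposed to compounds in a 3-fold dilution series (source plates from 10 mM stock) for forty-two hours at 37 °C.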
# [2] = system: primary human fibroblasts derived from IPF patients (LL29 cells); assay: Inhibition of TGF-β1-induced fibrosis (αSMA staining) in primary human fibroblasts from IPF patients; format: cell-based; conditions: Fibroblast, 96 h, TGF-β1 20 ng/mL, 4 days, 11-point dose-response 10 μM to 1.87 nM
# Method in brief: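 LL29 cells in F12 with 1% FBS were exposed to compound (11-point, 10 μM–1.87 nM, 0.1% DMSO) plus TGF-β1 20 ng/mL for 4 days at 37° C. Imaged αSMA-positive fraction of live (SYTOX-negative) cells, normalized to TGF-β1/DMSO wells; EC50 by non-linear regression of triplicates.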
Compound,IC50 [1] [nM],EC50 [2] [nM]
"FC1(F)CCN(Cc2cncc(-c3cnc4[nH]nc(-c5nc6c(-c7cccs7)nccc6[nH]5)c4c3)c2)C1 [Compound 311, 5-(5-((3,3-Difluoropyrrolidin-1-yl)methyl)pyridin-3-yl)-3-(4-(thiophen-2-yl)-1H-imidazo[4,5-c]pyridin-2-yl)-1H-pyrazolo[3,4-b]pyridine]",22.8,174
"CC(C)CC(=O)Nc1cncc(-c2cnc3[nH]nc(-c4nc5c(-c6ccc(F)s6)nccc5[nH]4)c3c2)c1 [Compound 314, N-(5-(3-(4-(5-Fluorothiophen-2-yl)-1H-imidazo[4,5-c]pyridin-2-yl)-1H-pyrazolo[3,4-b]pyridin-5-yl)pyridin-3-yl)-3-methylbutanamide]",6.3,9
"CC(C)(C)C(=O)Nc1cncc(-c2cnc3[nH]nc(-c4nc5c(-c6ccc(F)s6)nccc5[nH]4)c3c2)c1 [Compound 320, N-(5-(3-(4-(5-Fluorothiophen-2-yl)-1H-imidazo[4,5-c]pyridin-2-yl)-1H-pyrazolo[3,4-b]pyridin-5-yl)pyridin-3-yl)pivalamide]",9.3,9
"Cc1ccc(-c2nccc3[nH]c(-c4n[nH]c5ncc(-c6cncc(NC(=O)C(C)C)c6)cc45)nc23)s1 [Compound 347, N-(5-(3-(4-(5-Methylthiophen-2-yl)-1H-imidazo[4,5-c]pyridin-2-yl)-1H-pyrazolo[3,4-b]pyridin-5-yl)pyridin-3-yl)isobutyramide]",20.8,633
"Cc1ccc(-c2nccc3[nH]c(-c4n[nH]c5ncc(-c6cncc(CN7CCCCC7)c6)cc45)nc23)s1 [Compound 353, 3-(4-(5-Methylthiophen-2-yl)-1H-imidazo[4,5-c]pyridin-2-yl)-5-(5-(piperidin-1-ylmethyl)pyridin-3-yl)-1H-pyrazolo[3,4-b]pyridine]",576,9
"Cc1ccc(-c2nccc3[nH]c(-c4n[nH]c5ncc(-c6cncc(NC(=O)C7CCCC7)c6)cc45)nc23)s1 [Compound 359, N-(5-(3-(4-(5-Methylthiophen-2-yl)-1H-imidazo[4,5-c]pyridin-2-yl)-1H-pyrazolo[3,4-b]pyridin-5-yl)pyridin-3-yl)cyclopentanecarboxamide]",29.9,4850
"CC(=O)c1ccc(-c2nccc3[nH]c(-c4n[nH]c5ncc(-c6cncc(NC(=O)Cc7ccccc7)c6)cc45)nc23)s1 [Compound 374, N-(5-(3-(4-(5-Acetylthiophen-2-yl)-1H-imidazo[4,5-c]pyridin-2-yl)-1H-pyrazolo[3,4-b]pyridin-5-yl)pyridin-3-yl)-2-phenylacetamide]",> 10000,427
"CC(=O)c1ccc(-c2nccc3[nH]c(-c4n[nH]c5ncc(-c6cncc(NC(=O)C7CCCCC7)c6)cc45)nc23)s1 [Compound 386, N-(5-(3-(4-(5-Acetylthiophen-2-yl)-1H-imidazo[4,5-c]pyridin-2-yl)-1H-pyrazolo[3,4-b]pyridin-5-yl)pyridin-3-yl)cyclohexanecarboxamide]",188,53
"CS(=O)(=O)NCc1cc(F)cc(-c2nccc3[nH]c(-c4n[nH]c5ncc(-c6cncc(NC(=O)c7ccccc7)c6)cc45)nc23)c1 [Compound 401, N-(5-(3-(4-(3-Fluoro-5-(methylsulfonamidomethyl)phenyl)-1H-imidazo[4,5-c]pyridin-2-yl)-1H-pyrazolo[3,4-b]pyridin-5-yl)pyridin-3-yl)benzamide]",> 10000,≥ 9990
"CS(=O)(=O)NCc1cc(F)cc(-c2nccc3[nH]c(-c4n[nH]c5ncc(-c6cncnc6)cc45)nc23)c1 [Compound 416, N-(3-Fluoro-5-(2-(5-(pyrimidin-5-yl)-1H-pyrazolo[3,4-b]pyridin-3-yl)-1H-imidazo[4,5-c]pyridin-4-yl)benzyl)methanesulfonamide]",> 10000,≥ 9990
"CCCCC(=O)Nc1cncc(-c2cnc3[nH]nc(-c4nc5c(-c6cc(F)cc(NCCN(C)C)c6)nccc5[nH]4)c3c2)c1 [Compound 434, N-(5-(3-(4-(3-((2-(Dimethylamino)ethyl)amino)-5-fluorophenyl)-1H-imidazo[4,5-c]pyridin-2-yl)-1H-pyrazolo[3,4-b]pyridin-5-yl)pyridin-3-yl)pentanamide]",21.9,13
"CN(C)CCNc1cc(F)cc(-c2nccc3[nH]c(-c4n[nH]c5ncc(-c6cncc(CNCC7CCCC7)c6)cc45)nc23)c1 [Compound 440, N^1-(3-(2-(5-(5-(((Cyclopentylmethyl)amino)methyl)pyridin-3-yl)-1H-pyrazolo[3,4-b]pyridin-3-yl)-1H-imidazo[4,5-c]pyridin-4-yl)-5-fluorophenyl)-N^2,N^2-dimethylethane-1,2-diamine]",752,858
"Fc1cccc(-c2nccc3[nH]c(-c4n[nH]c5ncc(C6CCNCC6)cc45)nc23)c1 [Compound 885, 3-(4-(3-Fluorophenyl)-1H-imidazo[4,5-c]pyridin-2-yl)-5-(piperidin-4-yl)-1H-pyrazolo[3,4-b]pyridine]",3860,9
"Fc1cccc(-c2nccc3[nH]c(-c4n[nH]c5ncc(-c6cn[nH]c6)cc45)nc23)c1 [Compound 887, 3-(4-(3-Fluorophenyl)-1H-imidazo[4,5-c]pyridin-2-yl)-5-(1H-pyrazol-4-yl)-1H-pyrazolo[3,4-b]pyridine]",6,10
"NC1CN(c2cncc(-c3cnc4[nH]nc(-c5nc6c(-c7cccc(F)c7)nccc6[nH]5)c4c3)n2)C1 [Compound 890, 1-(6-(3-(4-(3-Fluorophenyl)-1H-imidazo[4,5-c]pyridin-2-yl)-1H-pyrazolo[3,4-b]pyridin-5-yl)pyrazin-2-yl)azetidin-3-amine]",365,205
"Fc1cccc(-c2nccc3[nH]c(-c4n[nH]c5ncc(-c6cncc(OC7CCNCC7)c6)cc45)nc23)c1 [Compound 892, 3-(4-(3-Fluorophenyl)-1H-imidazo[4,5-c]pyridin-2-yl)-5-(5-(piperidin-4-yloxy)pyridin-3-yl)-1H-pyrazolo[3,4-b]pyridine]",315,9
"O=C(CC1CCNCC1)Nc1cncc(-c2cnc3[nH]nc(-c4nc5c(-c6cccc(F)c6)nccc5[nH]4)c3c2)c1 [Compound 893, N-(5-(3-(4-(3-Fluorophenyl)-1H-imidazo[4,5-c]pyridin-2-yl)-1H-pyrazolo[3,4-b]pyridin-5-yl)pyridin-3-yl)-2-(piperidin-4-yl)acetamide]",868,308
"CN(C)CCOc1cncc(-c2cnc3[nH]nc(-c4nc5c(-c6cccc(F)c6)nccc5[nH]4)c3c2)c1 [Compound 895, 2-((5-(3-(4-(3-Fluorophenyl)-1H-imidazo[4,5-c]pyridin-2-yl)-1H-pyrazolo[3,4-b]pyridin-5-yl)pyridin-3-yl)oxy)-N,N-dimethylethan-1-amine]",343,≥ 9990
"COc1cncc(-c2cnc3[nH]nc(-c4nc5c(-c6cccc(F)c6)nccc5[nH]4)c3c2)c1 [Compound 896, 3-(4-(3-Fluorophenyl)-1H-imidazo[4,5-c]pyridin-2-yl)-5-(5-methoxypyridin-3-yl)-1H-pyrazolo[3,4-b]pyridine]",37,108
"Fc1cccc(-c2nccc3[nH]c(-c4n[nH]c5ncc(-c6ccncc6)cc45)nc23)c1 [Compound 900, 3-(4-(3-Fluorophenyl)-1H-imidazo[4,5-c]pyridin-2-yl)-5-(pyridin-4-yl)-1H-pyrazolo[3,4-b]pyridine]",> 10000,9
